pIC50: −log10 of the molar value. Where two headings read alike, the source gives them in different places.

The results in this text go back to publication PMC9695592, “Phenotypic Evaluation of Nucleoside Analogues against Trypanosoma cruzi Infection: In Vitro and In Vivo Approaches” (Molecules, 2022).

The subject of one assay is L929 cells. Description: Toxicity on L929 cells (AlamarBlue). The assay is classed as cell-based. Conditions: Mus musculus, L929, 168 h; seven days of compound incubation; 95% confidence interval in brackets. From the text:
(§1) L929 cell lines were used to evaluate the effect of the nucleoside derivatives on the cellular viability of mammalian host cells and to assess their activity against intracellular forms of T. cruzi (Tulahuen strain expressing E. coli β-galactosidase gene, DTU VI) as reported. 2D and 3D culture systems of rat cardiomyoblast cell lines (H9C2(2-1)) were used to evaluate cardiotoxicity and to test the derivatives’ activity on intracellular forms (Y strain, DTU II). In all assays, the cell cultures were maintained at 37 °C under an atmosphere of 5% CO2.
L929 cells seeded in sterile 96-well microtiter plates were exposed or not to increasing concentrations (up to 200 µM) of the compounds. After seven days of incubation, the cell growth of treated cultures was compared to untreated control cells (100% cell growth). Cellular viability was assessed through AlamarBlue® (resazurin sodium salt) colorimetric assay, and the results were expressed as % reduction in cell growth/viability compared to untreated control, and an IC50 value determined. For the assays using H9C2 cultures, 25 × 10^3 cells/well were seeded in a 96-well microtiter plates (flat and U bottoms, precoated with agarose 1% for preparing 2- and 3D matrices, respectively) and maintained at 37 °C [48, 54].
Background: Alamar Blue is a resazurin reagent that responds to reducing activity.

In the next assay the test system is H9C2 2D cultures. Kind of assay: Cardiotoxicity on H9C2 monolayers (2D), PrestoBlue. Conditions: Rattus norvegicus. The format is cell-based.
Source text: as §1
L929 cells seeded in sterile 96-well microtiter plates were exposed or not to increasing concentrations (up to 200 µM) of the compounds. […] Cellular viability was assessed through AlamarBlue® (resazurin sodium salt) colorimetric assay, and the results were expressed as % reduction in cell growth/viability compared to untreated control, and an IC50 value determined. For the assays using H9C2 cultures, 25 × 10^3 cells/well were seeded in a 96-well microtiter plates (flat and U bottoms, precoated with agarose 1% for preparing 2- and 3D matrices, respectively) and maintained at 37 °C [48, 54].
[…] Cell viability was measured using the PrestoBlue® (PB) colorimetric assay, the results evaluated as % reduction in cell growth/viability compared to untreated control, and an IC50 value determined. The data results from at least two independent experiments done in at least duplicates.

In assay [1] the test system is T. cruzi (Y strain) in male Swiss mice. Description: Mouse model of acute T. cruzi infection (Y strain). Conditions: for parasite DNA amplification in blood (qPCR): 77 dpi, heart puncture, derivatives 25 mg/kg/day, Bz 100 mg/kg/day, 5 days oral, limit of detection 0.47 eq par/mL; for reduction of parasitemia: gavage once a day, 5 consecutive days, 25 mg/kg/day, from parasitemia onset, p < 0.05; for protection against loss of weight induced by acute infection: 25 mg/kg/day oral, 5 days. The format is in vivo. As for the experimental part: Thus, a proof-of-concept study was performed in T. cruzi-infected mice. The infected animals were treated (gavage, once a day) for 5 consecutive days with the derivatives (25 mg/kg/day) or Bz (100 mg/kg/day), starting drug administration at the parasitemia onset, usually on day 5 dpi, following doses and protocols already established for the other nucleoside derivatives.
The synthesis and characterization of FH11706, FH10714 [46] and FH8513 [19] were previously reported. Benznidazole (Bz) was purchased from Laboratório Farmacêutico do Estado de Pernambuco (Brazil). […] For in vivo assays, Bz was formulated using 3% Tween 80 in distilled water and the nucleoside analogues in 10% (v/v) EtOH, with 1.1 mM aqueous citrate buffer pH 3.2 and dosed according to animal body weight.
Male Swiss Webster mice (18−20 g; 4−5 weeks of age) were obtained from the Institute of Sciences and Technologies in Biomodels (ICTB-FIOCRUZ), housed with a maximum of 5 animals per cage and kept in a specific pathogen-free (SPF) room at 20−24 °C under a 12 h light and 12 h dark cycle. All animals received sterilized water and food ad libitum. The animals were acclimatized for 7 days before the experiments. To detect possible toxic events, nucleoside analogues and Bz were orally given to non-infected Swiss male mice (n = 2) for 5 consecutive days, with a fixed dose of 50 mg/kg (0.1 mL). On day 5, all animals were euthanized to inspect toxic and subtoxic symptoms. For a proof-of-concept study, animals were infected by i.p. administration of 10^4 bloodstream trypomastigotes (Y strain), and drug administration started at the onset of parasitemia (6 dpi), only using mice with detectable parasitemia. Control mice groups were age-matched and housed under identical conditions. The following experimental groups were used (3 mice per group): untreated (infected vehicle-treated control) and treated (infected and treated with derivatives or with benznidazole). The derivatives and Bz were given orally (gavage) for five consecutive days at 25 mg/kg and 100 mg/kg, respectively, once a day. Parasitemia levels in T. cruzi assays were individually checked by light microscopic counting of parasites in 5 μL of blood, as described. For blood qPCR analysis, 500 µL of blood was diluted in a 1:2 volume of guanidine solution and heated for 60 s in boiling water, followed by DNA purification using High Pure PCR Template Preparation Kit (Roche Applied Science) and quantitative real-time multiplex PCR assays. TaqMan probes were used for quantification of both T. cruzi satellite nuclear DNA and internal amplification control (IAC), as described in Duffy et al. (2013), using the following primer and prober sets: Cruzi1 5′-[…]-3′ (750 nM), Cruzi2 5′-[…]-3′ (750 nM), Cruzi3 FAM-5′-CACACACTGGACACCAA-3′-NFQ-MGB (50 nM), IAC Fw 5′-[…]-3′ (100 nM), IAC Rv 5′-[…]-3′ (100 nM) and IAC Tq 5′-VIC-AGCATCTGTTCTTGAAGGT-NFQ-MGB-3′ (50 nM). The cycling conditions were a first step of 10 min at 95 °C, followed by 40 cycles at 95 °C for 15 s and 58 °C for 1 min. The amplifications were carried out in a Quantstudio 3 real-time PCR system (Applied Biosystems), with the threshold set at 0.02 in all runs. Standard curves were constructed for absolute quantification through the serial dilution of total DNA, ranging from 10^5 parasite equivalent to 1 parasite equivalent per mL of blood, obtained with a negative blood sample in guanidine-EDTA. Parasite load was expressed as equivalent of parasite DNA per mL of blood.
Background: In qPCR the cycle at which signal appears reflects the starting amount.

Where [2] appears, read: H9c2, 24 h, read-out: H9C2 IC50 µM.
Where [3] appears, read: H9c2, 168 h, read-out: Cardiotoxic profile IC50 (µM) 2D.

As to `Nc1ncnc2c1c(-c1ccc(Cl)c(F)c1)cn2[C@@H]1O[C@H](CO)[C@@H](O)[C@H]1O` [FH10714, 7-(3-fluoro,4-chlorophenyl)tubercidin], in the assay on L929 cells, the negative-log IC50 (pIC50) (usually the IC50 on a negative log10 scale, so that one unit is a factor of ten) is 4.25. For the same compound, the IC50 (as a rule, the concentration needed to halve the response being measured) in the assay with H9C2 2D cultures (setting [2]) is over 300 µM. Besides, in the assay on H9C2 2D cultures (setting [3]), the IC50 turned out to be 41.8 µM. In assay [1], the “parasite DNA amplification in blood (qPCR)” value (“parasite DNA amplification” for short) is listed as 0.046 ± 0.038 eq par/mL and the reduction of parasitemia came out at 99.58%. Besides, the “sterile (parasitological) cure in mice” value in assay [1] (oral once a day for 5 days (derivatives 25 mg/kg), blood qPCR) was “incapable to promote a parasitological cure”.
Take `Nc1ncnc2c1c(-c1ccc(F)c(F)c1)cn2[C@@H]1O[C@H](CO)[C@@H](O)[C@H]1O` [FH11706, 7-(3,4-Difluorophenyl)tubercidin]: the negative logarithm of the IC50 (pIC50) in the assay with L929 cells was 3.93. In addition, in the assay with H9C2 2D cultures (setting [2]), the 50% inhibitory concentration (IC50) is over 300 µM. The IC50 in the assay with H9C2 2D cultures (setting [3]) came out at 47.7 µM. Besides, in assay [1], the “protection against loss of weight induced by acute infection” value is on record as “strongly protected”, the “parasite DNA amplification” value turned out to be 0.038 ± 0.016 eq par/mL and the reduction of parasitemia is given as 98.4%.
Take `O=C(Cn1ccnc1[N+](=O)[O-])NCc1ccccc1` [Bz, Benznidazole, reference compound]: the pIC50 in the assay with L929 cells was under 3.70. The IC50 in the assay with H9C2 2D cultures (setting [2]) is over 300 µM; in the assay on H9C2 2D cultures (setting [3]) it was over 200 µM. Besides, the “parasite DNA amplification” value in assay [1] is given as 0.187 ± 0.082 eq par/mL.
In the case of `Nc1ncnc2c1c(-c1ccc(Cl)c(Cl)c1)cn2[C@@H]1O[C@H](CO)C[C@H]1O` [FH8513, 7-(3,4-dichlorophenyl)-3′-deoxytubercidin], the negative logarithm of the IC50 (pIC50) with L929 cells is 4.65. Besides, the IC50 in the assay on H9C2 2D cultures (setting [2]) was determined as 268 µM. The IC50 in the assay with H9C2 2D cultures (setting [3]) came to 18.6 µM. Further, in assay [1], the “protection against loss of weight induced by acute infection” value is on record as “strongly protected”, the “parasite DNA amplification” value amounted to 0.287 ± 0.017 eq par/mL and the reduction of parasitemia worked out at 99.48%.
